Results as given in article PMC10113987, “A tool for nuclear imaging of the SARS-CoV-2 entry receptor: molecular model and preclinical development of ACE2-selective radiopeptides” (EJNMMI Research, 2023).
Positions of bridges follow the written chain, without caps; N, C: chain ends. Residues, ends and D or L forms follow the SMILES beside them. *: point of attachment. NODAGA = O=C(O)CN1CCN(CC(=O)O)CCN(C(CCC(=O)*)C(=O)O)CC1

Test system: HEK-ACE2 cells
Test: Cell uptake and internalization in HEK-ACE2 cells
Format: cell-based, human
Protocol: HEK-293 cells transfected with ACE2 or ACE, referred to as HEK-ACE2 and HEK-ACE, respectively, were obtained from Innoprot (Innovative Technologies in Biological Systems S.L. Bizkaia, Spain). The cells were cultured in Dulbecco’s Modified Eagle Medium (DMEM) supplemented with nonessential amino acids, fetal calf serum and antibiotics. Hygromycin B was used to maintain the expression of ACE2 and ACE, respectively. The HEK cells were cultured under standard conditions at 37 °C and 5% CO2 and subcultured using PBS/EDTA and trypsin.
The uptake and internalization of [^67Ga]Ga-DOTA-DX600, [^67Ga]Ga-NODAGA-DX600, [^67Ga]Ga-HBED-CC-DX600 and [^67Ga]Ga-DOTA-BPP9a were determined using HEK-ACE2 and HEK-ACE cells. The cells were seeded in poly-D-lysine-coated 12-well plates allowing cell adhesion and growth overnight. After rinsing the cells with PBS, they were incubated with the respective radiopeptide (25 µL, 1.9 pmol, 38 kBq). In some cell samples, the radiopeptides were co-incubated with excess of cyclo-DX600 (2 µM) or lisinopril (4 µM) to block ACE2 or ACE, respectively. After incubation of the cells for 1 h or 3 h, they were rinsed with PBS or acidic stripping buffer (glycine buffer with NaCl 0.9%, pH 2.8) to determine the total uptake and internalization of the radiopeptides, respectively. Cell samples were lysed using NaOH (1 M, 1 mL) before counting the activity in a γ-counter. The results were expressed as a percentage of total added activity and normalized to an average content of ~ 0.3 mg protein per well.
Methods: The methods for cell uptake studies are reported in the main article. The cyclo-DX600 (ACE2 inhibitor) and lisinopril (ACE inhibitor) were applied at a final concentration of 2 µM and 4 µM, respectively.

CC(=O)N[C@@H](CCCCNC(=O)CCC(C(=O)O)N1CCN(CC(=O)O)CCN(CC(=O)O)CC1)C(=O)NCC(=O)N[C@@H](CC(=O)O)C(=O)N[C@@H](Cc1ccc(O)cc1)C(=O)N[C@@H](CO)C(=O)N[C@@H](Cc1c[nH]cn1)C(=O)N[C@H]1CSSC[C@@H](C(=O)N[C@H](C(=O)N[C@@H](Cc2ccc(O)cc2)C(=O)N2CCC[C@H]2C(=O)N[C@@H](CC(=O)O)C(=O)N2CCC[C@H]2C(=O)N[C@@H](CCC(=O)O)C(=O)NCC(=O)NCC(=O)NCC(N)=O)[C@@H](C)O)NC(=O)[C@H](CCCCN)NC(=O)[C@H](Cc2c[nH]c3ccccc23)NC(=O)[C@H](Cc2c[nH]c3ccccc23)NC(=O)[C@@H]2CCCN2C(=O)[C@H](Cc2ccc(O)cc2)NC(=O)[C@H](Cc2ccc(O)cc2)NC(=O)[C@H](CCCNC(=N)N)NC(=O)[C@H](CC(C)C)NC(=O)[C@@H]2CCCN2C(=O)[C@H](CO)NC1=O (stereo partly drawn) [[^67Ga]Ga-NODAGA-DX600, metal not drawn] (Ac-K(NODAGA)GDYSHCSPLRYYPWWKCTYPDPEGGG-NH2; disulfide 7-18) was tested, and the “Internalized fraction in HEK-ACE2 cells” value (3 h incubation, acidic stripping buffer) was 8.2 ± 0.3%, the “Uptake in HEK-ACE2 cells” value (3 h incubation, percentage of total added activity) was 40 ± 3% and the “Uptake in HEK-ACE2 cells in the presence of excess cyclo-DX600 (unspecifically bound)” value (co-incubation with cyclo-DX600 2 µM) was 3.1 ± 1.1%.
